In patent publication US10538567B2, “Compounds as peptidic trigonal GLP1/glucagon/GIP receptor agonists” (priority 2016, dated 2020) one finds EC50 data, which are given here for one compound.

In this experiment the target is T1, human GLP-1 receptor (Homo sapiens, UniProt P43220).
T1 construct: expressed in transfected cells; host or cells: HEK-293
As to the kind of experiment: cAMP response (HTRF) of HEK-293 cells stably expressing human GLP-1 receptor. Conditions: Table 8; read-out: EC50 hGLP-1R. In kind it is cell-based. The protocol: cAMP content of cells was determined using a kit from Cisbio Corp. (cat. no. 62AM4PEJ) based on HTRF (Homogenous Time Resolved Fluorescence). For preparation, cells were split into T175 culture flasks and grown overnight to near confluency in medium (DMEM/10% FBS). Medium was then removed and cells washed with PBS lacking calcium and magnesium, followed by proteinase treatment with accutase (Sigma-Aldrich cat. no. A6964). Detached cells were washed and resuspended in assay buffer (1×HBSS; 20 mM HEPES, 0.1% BSA, 2 mM IBMX) and cellular density determined. They were then diluted to 400000 cells/ml and 25 μl-aliquots dispensed into the wells of 96-well plates. For measurement, 25 μl of test compound in assay buffer was added to the wells, followed by incubation for 30 minutes at room temperature.
Potencies of peptidic compounds at the GLP-1, glucagon and GIP receptors were determined by exposing cells expressing human glucagon receptor (hGlucagon R), human GIP receptor (hGIP-R) or human GLP-1 receptor (hGLP-1 R) to the listed compounds at increasing concentrations and measuring the formed cAMP as described in Methods.
(In TR-FRET formats the signal depends on donor and acceptor labels being close together.)

T1 sequence (P43220 24-463): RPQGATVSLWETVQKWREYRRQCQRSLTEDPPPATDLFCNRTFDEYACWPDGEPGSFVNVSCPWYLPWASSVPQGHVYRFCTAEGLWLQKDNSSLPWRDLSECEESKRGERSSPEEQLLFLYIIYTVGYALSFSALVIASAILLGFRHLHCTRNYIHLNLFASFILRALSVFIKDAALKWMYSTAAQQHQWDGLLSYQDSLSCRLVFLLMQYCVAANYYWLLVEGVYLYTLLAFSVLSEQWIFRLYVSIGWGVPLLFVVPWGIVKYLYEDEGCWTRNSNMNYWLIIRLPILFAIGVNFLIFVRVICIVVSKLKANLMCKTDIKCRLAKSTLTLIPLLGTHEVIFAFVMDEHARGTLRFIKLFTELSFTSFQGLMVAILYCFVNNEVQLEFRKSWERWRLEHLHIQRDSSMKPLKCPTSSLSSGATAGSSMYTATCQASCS

The term EC50 denotes the concentration at which the effect is half-maximal. As for `CCCCCCCCCCCCCCCC(=O)N[C@@H](CCC(=O)N[C@@H](CCC(=O)NCCCC[C@H](NC(=O)[C@H](CC(C)C)NC(=O)[C@H](CCCCN)NC(=O)[C@H](CO)NC(=O)[C@H](CC(C)C)NC(=O)[C@H](CC(=O)O)NC(=O)[C@H](CO)NC(=O)[C@@H](NC(=O)[C@H](Cc1ccccc1)NC(=O)[C@@H](NC(=O)CNC(=O)[C@H](Cc1c[nH]cn1)NC(=O)C(C)(C)NC(=O)[C@@H](N)Cc1c[nH]cn1)[C@@H](C)O)[C@@H](C)O)C(=O)N[C@@H](CCC(=O)O)C(=O)N[C@@H](CCC(=O)O)C(=O)N[C@@H](CCC(N)=O)C(=O)N[C@@H](CCCNC(=N)N)C(=O)N[C@@H](CCC(N)=O)C(=O)N[C@@H](CCCCN)C(=O)N[C@@H](CCC(=O)O)C(=O)N[C@@H](Cc1ccccc1)C(=O)N[C@H](C(=O)N[C@@H](CCC(=O)O)C(=O)N[C@@H](Cc1c[nH]c2ccccc12)C(=O)N[C@@H](CC(C)C)C(=O)N[C@@H](CCCCN)C(=O)N[C@@H](C)C(=O)NCC(=O)NCC(=O)N[C@@H](Cc1c[nH]cn1)C(=O)N1CCC[C@H]1C(=O)N[C@@H](CO)C(=O)NC(C)(C)C(=O)N[C@@H](CCCCN)C(=O)N1CCC[C@H]1C(=O)N1CCC[C@H]1C(=O)N1CCC[C@H]1C(=O)N[C@@H](CCCCN)C(N)=O)[C@@H](C)CC)C(=O)O)C(=O)O` [SEQ ID NO: 6, H-Aib-H-G-T-F-T-S-D-L-S-K-L-K[gGlu-gGlu-Palm]-E-E-Q-R-Q-K-E-F-I-E-W-L-K-A-G-G-H-P-S-Aib-K-P-P-P-K-NH2], the EC50 was 1.4 pM.
